Measurements published in EP3248604A1, “AGENTS FOR MODULATION OF WNT-TCF SIGNALLING AND USES THEREOF” (UNIVERSITE DE GENEVE, priority 2016, dated 2017).

Legend:
Format in all cases: cell-based, human
Epigenetic regulators = experiment: RT-qPCR gene expression in Ls174T cells, epigenetic regulators; set-up: key: ratio normalized to DMSO control = 1; settings: vs DMSO=1
Experimental: (§1) RT-qPCR was performed as in Melotti et al. (2014, supra) using BioRad equipment and reagents. Cells cultured in nitro were treated with the desired concentration of drug in DMEM-F12 and reduced serum (2.5% FBS) for 16h, unless otherwise noted, and collected in Trizol (Sigma) before total RNA extraction and cDNA synthesis. Primers were as in Table 1. HPRT (gene encoding Hypoxanthine phosphoribosyltransferase 1) and βACTIN were used as housekeeping controls for normalization.
Nine components of the three pathways (WNT-TCF, BMP/TGFβ and chemokine/cytokine), and the top 6 repressed epigenetic regulators (ZMYND8, EED, SMARCAL1, TBLIXR1, SETD6 and TAF5L) (Figure 12) were tested for their modulation by dnTCF and their timed response to CAP2 treatment. […] DnTCF also repressed the expression of BMP4, SMAD6, IL8, CXCL3 and CXCL5, but expression of IL33 was enhanced. […] BMP4 and ID2 were also repressed at 2 and 4h but SMAD6 was repressed only at 4h. CXCL3 was already repressed at 2h, IL8 was little affected and IL33 and CXCL5 were enhanced at 2h. At 4 h only CXCL3 was repressed and the other three cytokine/chemokine genes tested (IL8, IL33 and CXCL5) were neither enhanced nor repressed. […] All values are normalized ratios with DMSO-controls, which were equated to 1 Table 14

WNT-TCF targets [1] = experiment: RT-qPCR gene expression in CC36 primary colon cancer cells; settings: 16h, batch 3, vs DMSO=1
Experimental: as §1
(§2) Primary colon cells CC14, CC36 and mCC11, colon cancer cell lines DLD1, HT29, Ls174T, melanoma cell line MeWo, glioblastoma cell lines U87 and U251, and the lung cancer cell line H358 were cultured in DMEM-F12 with 10% FBS under standard in nitro conditions.

[2] = tested on: chromatin components and remodelers; experiment: Microarray analysis of chromatin components and remodelers in Ls174T cells; settings: CAP2-treated cells vs DMSO
Experimental: Cells treated with compounds were collected in Trizol and RNA was harvested using standard protocols. Quality and quantity of RNA was checked using Nano Series (Agilent Technologies). Samples with a RNA Integrity Number (RIN) >9/10 were chosen and cDNA and cRNA samples were prepared using GeneChip IVT Express kit. Genechip hybridization was done using the same kit and applied to PrimeView U219 human array (Affymetrix) in the Genomic Platform at the Faculty of Medicine, University of Geneva.
Mining the transcriptome of CAP2-treated cells for CAP2-induced expression changes the public Reactome database for a chromatin organization cluster expanded to include related family members (94 probes) was used.

WNT-TCF targets [3] = experiment: RT-qPCR gene expression in DLD1 cells
Experimental: as §1, §2

[4] = DLD1, 1.25µM, 16h, batch 3, vs DMSO=1
[5] = DLD1, 2.5µM, 16h, batch 3, vs DMSO=1
[6] = DLD1, 5µM, 16h, batch 3, vs DMSO=1
[7] = DLD1, 10µM, 16h, batch 3, vs DMSO=1
[8] = Table 7, DLD1, 1.25µM, vs DMSO=1
[9] = Table 7, DLD1, 2.5µM, vs DMSO=1
[10] = Table 11, head 'in vitro', DLD1, concentration not given
[11] = Table 13, DLD1 secondary 3D spheroids, pretreated 2.5µM

CC1=C(C)C(=O)O[C@@H]([C@](C)(O)[C@]2(O)CC[C@@]3(O)[C@@H]4CC=C5CC=CC(=O)[C@]5(C)[C@H]4CC[C@]23C)C1 [CAP2]
EED expression (Epigenetic regulators; 5µM batch 3, 2h post-treatment): 1.5
SETD6 expression (Epigenetic regulators; 5µM batch 3, 2h post-treatment): 2.0
SMARCAL1 expression (Epigenetic regulators; 5µM batch 3, 2h post-treatment): 1.6
TAF5L expression (Epigenetic regulators; 5µM batch 3, 2h post-treatment): 0.8
TBL1XR1 expression (Epigenetic regulators; 5µM batch 3, 2h post-treatment): 2.6
ZMYND8 expression (Epigenetic regulators; 5µM batch 3, 2h post-treatment): 1.3
EED expression (Epigenetic regulators; 5µM batch 3, 4h post-treatment): 0.5
SETD6 expression (Epigenetic regulators; 5µM batch 3, 4h post-treatment): 0.7
SMARCAL1 expression (Epigenetic regulators; 5µM batch 3, 4h post-treatment): 0.8
TAF5L expression (Epigenetic regulators; 5µM batch 3, 4h post-treatment): 0.3
TBL1XR1 expression (Epigenetic regulators; 5µM batch 3, 4h post-treatment): 0.6
ZMYND8 expression (Epigenetic regulators; 5µM batch 3, 4h post-treatment): 0.5
AXIN2 expression (WNT-TCF targets [1]; 1.25µM): 1.2
AXIN2 expression (WNT-TCF targets [1]; 2.5µM): 0.6
AXIN2 expression (WNT-TCF targets [1]; 5µM): 0.4
AXIN2 expression (WNT-TCF targets [1]; 10µM): 0.4
EED repression [2]: 8 fold
SMARCAL1 repression [2]: 6 fold
ZMYND8 repression [2]: 28 fold
AXIN2 expression (WNT-TCF targets [3]; [4]): 1.2
LGR5 expression (WNT-TCF targets [3]; [4]): 1.6
AXIN2 expression (WNT-TCF targets [3]; [5]): 0.2
LGR5 expression (WNT-TCF targets [3]; [5]): 0.3
AXIN2 expression (WNT-TCF targets [3]; [6]): 0.3
LGR5 expression (WNT-TCF targets [3]; [6]): 0.1
AXIN2 expression (WNT-TCF targets [3]; [7]): 0.1
LGR5 expression (WNT-TCF targets [3]; [7]): 0.04
AXIN2 expression level as compared to control (WNT-TCF targets [3]; DLD1, 2D culture, 2.5µm): 0.2
ASCL2 expression (WNT-TCF targets [3]; [8]): 0.2
AXIN2 expression (WNT-TCF targets [3]; [8]): 0.8
CDKN1A expression (WNT-TCF targets [3]; [8]): 7.2
LEF1 expression (WNT-TCF targets [3]; [8]): 0.4
LGR5 expression (WNT-TCF targets [3]; [8]): 0.5
cMYC expression (WNT-TCF targets [3]; [8]): 0.5
ASCL2 expression (WNT-TCF targets [3]; [9]): 0.2
AXIN2 expression (WNT-TCF targets [3]; [9]): 0.6
CDKN1A expression (WNT-TCF targets [3]; [9]): 8.6
LEF1 expression (WNT-TCF targets [3]; [9]): 0.3
LGR5 expression (WNT-TCF targets [3]; [9]): 0.3
cMYC expression (WNT-TCF targets [3]; [9]): 0.2
ASCL2 expression (WNT-TCF targets [3]; Table 7, DLD1, 5µM, vs DMSO=1): 0.3
AXIN2 expression (WNT-TCF targets [3]; Table 7, DLD1, 5µM, vs DMSO=1): 0.5
CDKN1A expression (WNT-TCF targets [3]; Table 7, DLD1, 5µM, vs DMSO=1): 9.0
LEF1 expression (WNT-TCF targets [3]; Table 7, DLD1, 5µM, vs DMSO=1): 0.1
LGR5 expression (WNT-TCF targets [3]; Table 7, DLD1, 5µM, vs DMSO=1): 0.1
cMYC expression (WNT-TCF targets [3]; Table 7, DLD1, 5µM, vs DMSO=1): 0.001
ASCL2 expression (WNT-TCF targets [3]; Table 7, DLD1, 10µM, vs DMSO=1): 0.3
AXIN2 expression (WNT-TCF targets [3]; Table 7, DLD1, 10µM, vs DMSO=1): 0.2
CDKN1A expression (WNT-TCF targets [3]; Table 7, DLD1, 10µM, vs DMSO=1): 6.1
LEF1 expression (WNT-TCF targets [3]; Table 7, DLD1, 10µM, vs DMSO=1): 0.1
LGR5 expression (WNT-TCF targets [3]; Table 7, DLD1, 10µM, vs DMSO=1): 0.1
cMYC expression (WNT-TCF targets [3]; Table 7, DLD1, 10µM, vs DMSO=1): 0.0002
ASCL2 expression (WNT-TCF targets [3]; [10]): 0.3
AXIN2 expression (WNT-TCF targets [3]; [10]): 0.5
LGR5 expression (WNT-TCF targets [3]; [10]): 0.1
AXIN2 expression (WNT-TCF targets [3]; Table 13, DLD1 2D, 2.5µM): 0.2
cMYC expression (WNT-TCF targets [3]; Table 13, DLD1 2D, 2.5µM): 0.1
AXIN2 expression (WNT-TCF targets [3]; [11]): 0.5
cMYC expression (WNT-TCF targets [3]; [11]): 0.4
